Experimental data: the NIST ThermoML archive (doi:10.1016/j.jct.2013.09.039)

Test: xn = mol fraction of the nth substance listed
Conditions: Liquid, Vibrating tube method

Cc1ccc(C)cc1 [1,4-dimethylbenzene] + CCCCCCCCCC
mass density [kg/m3]
Conditions | 100 kPa | 5000 kPa | 10000 kPa | 20000 kPa | 30000 kPa | 40000 kPa
288.15 K, x2 = 0.0513 | 854 | 858 | 861.4 | 867.9 | 873.8 | 879.5
288.15 K, x2 = 0.0971 | 845.3 | 849.4 | 852.8 | 859.2 | 865 | 870.8
288.15 K, x2 = 0.1962 | 828.2 | 831.6 | 835 | 841.5 | 847.4 | 853.3
288.15 K, x2 = 0.2932 | 812.1 | 815.9 | 819.4 | 825.7 | 831.8 | 837.6
288.15 K, x2 = 0.3942 | 799.8 | 803.5 | 806.9 | 813.5 | 819.4 | 825.1
288.15 K, x2 = 0.4987 | 784.1 | 787.7 | 791.4 | 797.7 | 803.8 | 809.4
288.15 K, x2 = 0.5563 | 777.2 | 780.7 | 784.2 | 790.8 | 796.7 | 802.5
288.15 K, x2 = 0.5965 | 773.9 | 777 | 779.5 | 786 | 792 | 798.1
288.15 K, x2 = 0.7018 | 761 | 764.7 | 768.4 | 774.8 | 780.7 | 786.3
288.15 K, x2 = 0.8047 | 750.8 | 754.4 | 757.9 | 764.3 | 770.4 | 776
288.15 K, x2 = 0.8975 | 741 | 745.1 | 748.6 | 755.6 | 761.9 | 768.1
288.15 K, x2 = 0.9474 | 738 | 741.8 | 745.2 | 751.5 | 757.6 | 763.2
298.15 K, x2 = 0.0513 | 845.7 | 850.1 | 853.3 | – | – | –
298.15 K, x2 = 0.0971 | 837.1 | 841.3 | 844.4 | – | – | –
298.15 K, x2 = 0.1962 | 819.6 | 823.7 | 827 | – | – | –
298.15 K, x2 = 0.2932 | 804 | 808.2 | 811.4 | – | – | –
298.15 K, x2 = 0.3942 | 791.6 | 795.8 | 799.2 | – | – | –
298.15 K, x2 = 0.4987 | 776 | 780.5 | 783.6 | – | – | –
298.15 K, x2 = 0.5563 | 769 | 773.4 | 776.7 | – | – | –
298.15 K, x2 = 0.5965 | 765 | 768.7 | 771.9 | – | – | –
298.15 K, x2 = 0.7018 | 753.2 | 757.6 | 760.8 | – | – | –
298.15 K, x2 = 0.8047 | 742.9 | 747.2 | 750.5 | – | – | –
298.15 K, x2 = 0.8975 | 734.6 | 738.6 | 741.8 | – | – | –
298.15 K, x2 = 0.9474 | 730.4 | 734.6 | 738 | – | – | –
